Measurements: article PMC8494430, “Development of a fluorogenic ADAMTS-7 substrate” (Journal of Enzyme Inhibition and Medicinal Chemistry, 2021)

What was measured:
MMP-2 = target: T1, MMP-2 (Homo sapiens, UniProt P08253); assay: MMP-2 FRET peptide inhibition assay; format: biochemical; details: Cheng-Prusoff, read-out: Ki app MMP-2
T1 sequence (P08253 110-660): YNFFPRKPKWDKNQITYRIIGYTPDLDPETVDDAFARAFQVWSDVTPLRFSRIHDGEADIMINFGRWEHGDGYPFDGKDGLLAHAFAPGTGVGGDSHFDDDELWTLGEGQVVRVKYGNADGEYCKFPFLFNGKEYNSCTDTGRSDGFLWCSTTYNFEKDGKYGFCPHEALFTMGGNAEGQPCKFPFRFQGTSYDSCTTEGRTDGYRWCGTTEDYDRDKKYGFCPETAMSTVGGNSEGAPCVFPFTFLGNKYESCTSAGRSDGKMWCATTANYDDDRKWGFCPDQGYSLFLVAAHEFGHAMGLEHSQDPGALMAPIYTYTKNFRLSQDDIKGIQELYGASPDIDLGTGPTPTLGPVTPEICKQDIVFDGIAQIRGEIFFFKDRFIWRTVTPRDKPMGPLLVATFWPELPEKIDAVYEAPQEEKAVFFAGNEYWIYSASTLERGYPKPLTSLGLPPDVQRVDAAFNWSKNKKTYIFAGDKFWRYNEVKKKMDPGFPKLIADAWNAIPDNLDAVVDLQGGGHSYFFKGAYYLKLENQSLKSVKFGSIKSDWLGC
Excerpt: Substrate and Km values are in micromolar.
2,3-diaminopropionyl diaminopropionic amide; Fam, 5,6-carboxyfluorescein; Mca, 7-
Enzyme Substrate [S] Km Reference

ADAMTS-8 = target: T2, ADAMTS-8 (Homo sapiens, UniProt Q9UP79); assay: Cleavage of ATS7FP7 by ADAMTS-8; format: biochemical; details: ADAMTS-8 10 nM, ATS7FP7 40 μM
T2 construct: made in house; host or cells: HEK293T
T2 sequence (Q9UP79 214-889): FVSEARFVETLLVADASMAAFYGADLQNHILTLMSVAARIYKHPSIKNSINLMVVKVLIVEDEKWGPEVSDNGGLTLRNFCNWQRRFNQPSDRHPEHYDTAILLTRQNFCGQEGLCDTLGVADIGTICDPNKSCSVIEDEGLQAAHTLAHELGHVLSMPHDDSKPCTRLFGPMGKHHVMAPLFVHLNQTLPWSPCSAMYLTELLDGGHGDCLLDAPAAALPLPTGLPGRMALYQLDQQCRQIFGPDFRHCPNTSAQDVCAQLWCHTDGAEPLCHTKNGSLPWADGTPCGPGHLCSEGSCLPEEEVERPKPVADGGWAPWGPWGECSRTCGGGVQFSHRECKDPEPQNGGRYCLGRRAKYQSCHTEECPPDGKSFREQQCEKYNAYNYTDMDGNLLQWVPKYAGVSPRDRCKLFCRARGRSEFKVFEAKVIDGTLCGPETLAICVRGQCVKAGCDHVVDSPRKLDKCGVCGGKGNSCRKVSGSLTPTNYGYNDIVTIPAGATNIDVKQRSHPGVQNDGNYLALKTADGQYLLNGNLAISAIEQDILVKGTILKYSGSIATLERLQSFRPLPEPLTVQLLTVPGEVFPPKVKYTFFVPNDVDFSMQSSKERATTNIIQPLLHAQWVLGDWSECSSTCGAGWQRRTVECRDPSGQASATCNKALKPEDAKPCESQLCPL
Description: All enzyme assays were conducted in TNC-B buffer (50 mM Tris- HCl, pH 7.5, 150 mM NaCl, 10 mM CaCl2, and 0.02% NaN3) at 37 °C in 384 well plates (Cat. No: 784900, Greiner Bio-One, Austria). To avoid the formation of inhibitor or peptide aggregates, the detergent Brij-35 (0.05%) was added to TNC-B[13]. For inhibition studies, stock solutions of chemical compounds were prepared in dimethyl sulfoxide (DMSO) (10 mM). These were further diluted at different concentrations in TNC-B and incubated with ADAMTS-1, ADAMTS-4, ADAMTS-5, ADAMTS-7 or ADAMTS-8 (10 nM) for 1 h at 37 °C. Blank samples were prepared using buffer only and the rate of cleavage for blank reactions was subtracted from the rates measured in the presence of enzyme. Upon addition of the indicated ADAMTS-7 FRET substrates (40 µM), the fluorescence was measured immediately using a FLUOstar Omega microplate reader (BMG Labtech, Germany) with an excitation filter wavelength of 485 nm and an emission filter wavelength of 520 nm.
Supplementary Figure 6: Cleavage of ATS7FP7 by members of the ADAMTS family. A) ATS7FP7 (40 μM) was incubated either with ADAMTS-1, -4, -5, -7, or -8 (10 nM). Fluorescence was detected (λex = 485 nm, λem = 520 nm) for 8 h at 37°C and reported as relative fluorescence units (RFU). The data are presented as average ± SEM (n=3) and were fitted with a linear regression. […]

| Compound | Ki (MMP-2) [nM] | cleavage by ADAMTS-8 (ADAMTS-8) |
| --- | --- | --- |
| O=C(NCCC[C@@H](NS(=O)(=O)c1ccc(OCc2ccc(F)cc2Cl)cc1)C(=O)NO)c1ccccc1 [EDV33] | 4 ± 0.3 |  |
| Glu-Ala-Ala-Ala-Arg↓Ala-Glu↓Ala-Ala-Ala-Lys [ATS7FP7] |  | neither ADAMTS-1 nor ADAMTS-8 were able to cleave ATS7FP7 |
